Reference: PubChem BioAssay (NCI)
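GI50 = concentration required for 50% inhibition of growth. TGI marks complete inhibition of growth.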

What was measured:
Assay in all cases: inhibition of tumour cell growth, NCI panel, 384-well format; in the data active = GI50 below about 0.43 µM; inactive = the rest
HOP-62 NSCLC = system: HOP-62 NSCLC
M14 melanoma = system: M14 melanoma
MDA-MB-468 breast = system: MDA-MB-468 breast
SK-MEL-28 melanoma = system: SK-MEL-28 melanoma
SF-268 CNS = system: SF-268 CNS
RXF 393 renal = system: RXF 393 renal
HCC-2998 colon = system: HCC-2998 colon
UACC-62 melanoma = system: UACC-62 melanoma
A498 renal = system: A498 renal
KM12 colon = system: KM12 colon
HOP-92 NSCLC = system: HOP-92 NSCLC
SNB-19 CNS = system: SNB-19 CNS
COLO 205 colon = system: COLO 205 colon

CC(C)(O)c1cc(Nc2cc(Oc3cn(C4CC4)nc3C3CCOCC3)ccn2)ccn1
inactive: GI50 (HOP-62 NSCLC) > 100 µM | GI50 (M14 melanoma) > 100 µM | GI50 (MDA-MB-468 breast) 33.8 µM | GI50 (SK-MEL-28 melanoma) > 80.5 µM | GI50 (SF-268 CNS) > 100 µM | GI50 (RXF 393 renal) 43.5 µM | GI50 (HCC-2998 colon) > 100 µM | GI50 (UACC-62 melanoma) 52.1 µM | GI50 (A498 renal) 66.8 µM | GI50 (KM12 colon) 97.1 µM | GI50 (HOP-92 NSCLC) 50.7 µM | GI50 (SNB-19 CNS) > 100 µM | GI50 (COLO 205 colon) 63.2 µM
> 100 µM: TGI (HOP-62 NSCLC) | TGI (M14 melanoma) | TGI (SK-MEL-28 melanoma) | TGI (SF-268 CNS) | TGI (RXF 393 renal) | TGI (HCC-2998 colon) | TGI (UACC-62 melanoma) | TGI (A498 renal) | TGI (KM12 colon) | TGI (HOP-92 NSCLC) | TGI (SNB-19 CNS) | TGI (COLO 205 colon)
> 83.5 µM: TGI (MDA-MB-468 breast)
